We go through 2 compounds from patent US11279708B2, “Amidino- and amino-rocaglates as novel translation inhibitors and anticancer agents” (priority 2019, dated 2022).

Data set [1] relates to eIF4A-dependent translation. Nature of the data set: in vitro translation assay, bicistronic FF/HCV/Ren reporter mRNA in Krebs-2 extracts. The format is biochemical. To be noted: screen at 2 μM compound. As to the method: Structure-Activity Relationships. With a number of amidino-rocaglates and amino-rocaglates in hand, we evaluated their inhibition of eIF4A-dependent translation using an in vitro assay as depicted in FIG. 14, where a bicistronic reporter mRNA was designed for translation in Krebs-2 extracts. In FIG. 14 the following description applies (a) IC50 was determined from fitted sigmoid curves; […] indicates the concentration of compound that inhibits cap-dependent translation by 50%, which was normalized by cap-independent translation. For its determination, the bicistronic reporter FF/HCV/Ren mRNA was used to produce Firefly luciferase (cap-dependent) and Renilla luciferase (cap-independent) in Krebs-2 extracts in the presence of indicated compounds at various concentrations. In particular, translation of Firefly luciferase (FF) is cap-dependent and depends on eIF4A activity; in contrast, translation of Renilla luciferase (REN) utilizes the HCV internal ribosome entry site (IRES) which functions independently of eIF4A. IC50's were determined by the inhibition of FF relative to REN obtained in the presence of compound relative to vehicle controls and normalized to REN as an internal control. […] In accordance with the eIF4A-RNA-rocaglamide (2) co-crystallographic analysis (FIG. 4), the amide carbonyl of 2 interacts with Gln195 of eIF4A as a H-bond acceptor, while the tertiary hydroxyl of 2 serves as a H-bond donor to an RNA base. […] To further verify the hypothesis, amidino-rocaglates (pKa of N—H˜26.7-30.7 in DMSO, strong H-bond donors) and amino-rocaglates (pKa of N—H˜36 to 44 in DMSO, weak H-bond donors) were next evaluated. […] Conversely, benzyl amidine 9e had IC50=60 nM, whereas the methylene tether may allow conformational adjustment to avoid rigid repulsion in the binding pocket.
The rocaglate collection was also tested in in vitro translation assays using cell-free extracts with a previously described bicistronic mRNA containing the HCV IRES, which is not dependent on eIF4A activity and served as an internal control (FIG. 19C).
In Vitro Translation Assays. In vitro translation assays performed in Krebs-2 cell extracts were supplemented with 5 mM MgCl2, 30 mM Tris-HCl (pH 7.5), 1.5 mM ATP, 0.1 mM GTP, 0.6 mM CTP, 10 mM dipotassium creatine phosphate, 80 μg/mL creatine kinase, and 0.04 mM amino acids. The specified mRNA reporters were added to each reaction at a final concentration of 10 ng/μL. The translation reactions were incubated with or without compound for 60 minutes at 30° C. prior to the measurement of luciferase activities.
FIGS. 19A-19C. Rocaglate activity profiling. 19A. Assessing eIF4A1:poly r(AG)8 (SEQ ID NO: 2) RNA binding by FP in the presence of 10 μM rocaglate. Values are expressed relative to vehicle controls and data is rank ordered. n=3±SD. 19B. The change in polarization obtained with eIF4A1:poly r(AG)8 (SEQ ID NO: 2) and eIF4A2:poly r(AG)8 (SEQ ID NO: 2) RNA. Pearson r=0.814; p<0.0001. 19C. Inhibition of cap-dependent translation by rocaglates was measured using the indicated mRNA bicistronic reporter (4 ng/ul) in Krebs-2 extracts at a final compound concentration of 2 μM. n=3±SD.
FIG. 35A-35E are plots showing dose-response curve of FF-HCV-Ren mRNA translation in Krebs extracts with IC50s shown for inhibition of cap-dependent protein synthesis. Values are plotted relative to DMSO controls. n=2 technical replicates performed in duplicate.

For another data set, the system named is NIH/3T3 cells. Nature of the data set: Sulforhodamine B (SRB) cytotoxicity assay. The format is cell-based. To be noted: 40 nM, 4 days. As to the method:
In cellula activity of rocaglates. All compounds in the rocaglate collection were assessed for cytotoxic activity towards NIH/3T3 cells as well as the rocaglate-resistant line, eIF4A^em1JP, which harbors an F163L mutation in eIF4A1. This mutation was originally identified following selection for RocA-resistant yeast mutants and F163 was subsequently shown to be critical for stacking with ring C of RocA (2) (FIG. 4). Although eIF4A2 is also a target of rocaglates, eIF4A1 F163L is sufficient to confer resistance to rocaglate-induced translation inhibition and cytotoxicity, likely due to eIF4A1 being the more abundant isoform in NIH/3T3 cells (250-fold higher). […] Lastly, although effective at inhibiting cap-dependent translation in vitro, WGD-57-591 (no activity @ 40 nM) and WGD-57-590 (12% growth inhibition @ 40 nM) performed poorly in this assay.
Sulforhodamine B (SRB) assay. NIH/3T3 cells were seeded at a density of 1000 cells/well in a 96 well format and incubated in presence of each 40 nM compound. After 4 days of culture, cells were washed with PBS, fixed with 50% trichloroacetic (TCA) acid for 1 hour, and then stained with 0.5% sulforhodamine B in 1% acetic acid for 15 min. Plates were then washed 5 times with 1% acetic acid, dried, and the stained wells were resuspended with 10 mM Tris (pH 9) prior to measuring the absorbance at 510 nm using (Spectramax M5, Molecular Devices)
FIGS. 26A-26B. In cellula activity of rocaglates. 26A. Cytotoxicity of rocaglates towards NIH/3T3 (grey circle) and the NIH/3T3 rocaglate-resistant line, eIF4A^em1JP(redtriangle). Cells were exposed to 40 nM compound for 4 days and viability was measured using the SRB assay. n=3±SD. 26B. Rocaglates show different sequence preferences for inhibiting cap-dependent translation in cellula. HEK 293 cells were transfected with 0.5 μg of in vitro synthesized capped (AG)10-FF/HCV/Ren or (UC)10-FF/HCV/Ren mRNA and 1h later exposed to the indicated concentrations of compounds for an additional 6 h, at which time extracts were prepared and luciferase activity measured. n=3 SD.

Data set [2] relates to MDA-MB-231 breast cancer cells. Nature of the data set: SRB cell viability assay. Conditions: MDA-MB-231, SRB assay; read-out: IC50, cytotoxicity. The format is cell-based. An excerpt: Translation Inhibition by Amidino-Rocaglates Induces Cytotoxicity. We next evaluated amidino-rocaglates in an SRB cell viability assay using MDA-MB-231 breast cancer cells for cellular readout of translation inhibition (FIG. 16). In particular, (−)-9b, (−)-9aa, and (+)-9aa were compared with rocaglate hydroxamate (−)-23. […] The inspiring high-potency of amidino-rocaglates underscores their utility as promising agents for anticancer treatment combined with the appropriate formulation and drug-delivery strategies. […] Meanwhile, amide carbonyls of 9z and 9aa served as H-bond acceptors likely improving interactions with Gln195 of eIF4A, although this awaits structural confirmation. […] Our studies further illustrate the power of chemical synthesis enabling structural and biological improvement of complex natural products using targeted modifications. Additional biological studies of amidino-, amino-rocaglates, and related compounds including RNA binding studies are currently in progress and will be reported in due course.

As to `COC(=O)[C@@H]1[C@@H](c2ccccc2)[C@]2(c3ccc(OC)cc3)Oc3cc(OC)cc(OC)c3[C@@]23NC(C2CC2)=N[C@@]13O` [9n], the “inhibition of cap-dependent translation in vitro (in words)” value in data set [1] is given as “comparable potency to SDS-1-021”. Besides, the “rank among the top 15 cytotoxic rocaglates” value with NIH/3T3 cells stood at 15th. With `COC(=O)[C@@H]1[C@@H](c2ccccc2)[C@]2(c3ccc(OC)cc3)Oc3cc(OC)cc(OC)c3[C@@]23N=C(C)N[C@@]13O` [(−)-9b], the concentration for half-maximal inhibition (IC50) in data set [2] amounted to 3.5 nM.
